Measured values published in patent publication US20230270692A1, “COMPOUNDS FOR CHRONIC DISORDERS” (Pillai Universal LLC, priority 2020, published 2023).
Read-outs that look alike come from different tables or passages of the source.

What was measured:
[1] = system: xenograft nude mice models (triple-negative breast cancer, pancreatic, liver, colon cancer); assay: In vivo metastasis / stage IV tumor studies in xenograft nude mice versus standard drugs; conditions: mice, after 9 months since administration
[2] = system: histone H3 acetylation, acetyl-α-tubulin; assay: Histone H3 / α-tubulin acetylation western blot in PANC cells; type: cell-based, Human
Procedure: (§1) Class I HDAC expression during pancreatic tumorigenesis was next examined. Briefly different concentration of Compound I were added and incubated for 24 h. […] Inhibition of Class I HDACs is associated with the upregulation of histone H3 acetylation and p21 mRNA and protein expression which have associated with the anti-proliferative activity. It has also been reported that HDAC6 functions as a α-tubulin deacetylase, modulating tubulin stability. Because α-tubulin and histone H3 are mutual downstream targets of HDACs, the relationship between protein expression and function of molecules was further examined. The effects of Compound I on histone H3 acetylation in PANC cells using western blot analysis was studied.

SARS-CoV-2 [3] = type: cell-based
[4] = Acute oral toxicity (OECD 423); type: in vivo
Procedure: Experimental Design: The assay of acute toxicity was performed according to the Organization for Economic Cooperation and Development (OECD) guideline 423 (OECD, 2001a). A total of 60 mice weighing between 27 and 37 g were randomly divided into six experimental groups of 10 mice each (5 males and 5 females per group). After fasting overnight Compound I was administered to each treatment group at single doses of 200, 500 1000, 2000, mg/kg, respectively, by oral gavage. The control groups were treated with the same volume of distilled water. After dosing, all animals were observed individually for mortality and changes in general behavior during the first 30 min, then at 2, 4, 6, 10 and 24 h following treatment. Symptoms of toxicity such as hypo-activity, piloerection, breathing difficulty, tremors, and convulsion were evaluated after administration of the various doses. The LD 50 value was determined according to the method described by the OECD Guidelines 423 (OECD, 2001a). During the remaining experimental period, the animal observation was performed at least once per day for the post-dosing period of 14 days. Body weights were measured at the initiation of treatment, and on days 4, 7, 11 and 14 after administration. On the 14th day, the mice were sacrificed under anesthesia, and vital organs (heart, kidneys, lung, spleen and liver) were removed for macroscopic examination.

HUMSCs = assay: Neuronal differentiation of human umbilical cord stem cells; type: cell-based
Procedure: After treatment at 72 h, the ratio of neuron-like cells reached high, with the cell bodies contracted and the protuberances lengthened further. The MSCs retained this morphology for the duration of the induction.

SARS-CoV-2 [5] = assay: Inactivation of SARS-CoV-2 upon direct exposure; conditions: Severe acute respiratory syndrome coronavirus 2, read-out: 50% reduction (IC50), inactivation of SARS-CoV-2
lung cancer stem cells = assay: Targeting lung cancer stem cells
Description: Compound I is orally bioavailable, multi-tyrosine-kinase inhibitor with 120 target proteins that induces apoptosis and suppresses the invasiveness of lung cancer stem cells with no toxicity to normal cells. There were no signs of discomfort or any cardiovascular or respiratory disorders observed in animals after the administration throughout the study period.

[6] = system: cytokines and chemokines in the lungs; assay: Xenograft stage 4 metastasized breast cancer animal model, lung cytokines and pathology; type: in vivo
Description: In a xenograft stage 4 metastasized breast cancer animal model, Compound I decreased production of cytokines (tumor necrosis factor alpha [TNF-α] and interleukin-6 [IL6]) and chemokines (CXCL10, CCL2, CCL3, CCL5), and were correlated with migration of Natural Killer cells and macrophages and observed in the lungs.

[7] = system: panel of human normal cell lines; assay: MTT cytotoxicity of anticancer agents on normal cell lines, alone and with Compound I; conditions: combination treatment
Procedure: The cytotoxicity of anticancer agents was studied using a panel of human normal cell lines alone and with the combination of Compound I of the present invention. The cytotoxicity effect was determined by MTT assay. The following cell lines were used: Human epidermal keratinocytes cells (HaCaT), Human dermal fibroblast (HDF), Human bone marrow mesenchymal stem cells (HBMSCs), Human normal hepatocytes cells (THLE2), Human cardiac cells (AC-16), Human intestinal epithelial cells (HIEC-6), Human neuronal cells (SHSY-5Y), Human vascular Endothelial cells (HuVECs), Human lung epithelial cells (Calu-3), Human lung fibroblast (MRC 5).
Next, the cells were treated with anticancer agents in combination with Compound I of the present invention.

[8] = Cytotoxicity in Calu-3 cells; type: cell-based; conditions: human, Calu-3 lung epithelial cells, read-out: 50% cytotoxic concentration (CC50)
Procedure: The antiviral activity of Compound I was assessed against SARS-CoV-2 in Calu-3 cultures. […] To determine if Compound I could inhibit replication, we first evaluated antiviral activity and cytotoxicity in the continuous human lung epithelial cell line Calu-3 cells.

SARS-CoV-2 [9] = type: in vivo; conditions: PO 250 mg B.I.D. over 7 days
Vero cells = conditions: any of the concentrations tested
PANC-1 xenograft = PANC-1 xenograft mouse model; type: in vivo
Procedure: Study Design: A PANC-1 xenograft mouse model was carried out according to the experimental design described in FIG. 21A. Tumor volume was monitored over a 30-day period upon administration of PBS alone (vehicle control), 25 mg/kg gemcitabine, and 10 mg/kg Compound I.

[10] = system: cytotoxic cells, macrophages, NK cell and DC; assay: Immune response
Description: Compound I has the ability to activate CD4+ helper […] and generates an immune response in the body to protect against viral infections, Specifically, Compound I increases the number and activity of cytotoxic cells and promotes the activation of macrophages NK cell and DC which facilitate APC to CD4+ and CD8+ through capture, internalization, processing and presentation of antigens via MHC class I and II molecules.

[11] = system: Class I HDAC (HDAC1, HDAC2, HDAC3, HDAC8); assay: Class I HDAC expression/inhibition by western blotting in PANC cells; type: cell-based, Human
Procedure: as §1

With `COc1cc(/C=C/C(=O)/C=C/C=C/c2cc(OC)c(O)c(OC)c2)cc(OC)c1` [Compound I] the relapse of disease [1] was “no relapse of disease”, the acetyl-α-tubulin [2] was “no acetyl-α-tubulin was detected” and the “histone H3 acetylation” value ([2]; compared with control) was “stronger hyperacetylation”. The inhibition (SARS-CoV-2 [3]; 1 μM added after 10 h post infection) was “no inhibition”, the inhibition (SARS-CoV-2 [3]; 1 μM added between 6 and 8 h post infection) was “Less inhibition” and the inhibition (SARS-CoV-2 [3]; 1 μM added between 2 h pre-infection and 2-h post infection) was “Maximal inhibition”. The “viral RNA levels (qPCR)” value (SARS-CoV-2 [3]; increasing concentrations) was “decreased”, the treatment related death ([4]; acute, 14-day observation, both sexes) was “no treatment related death was observed” and the LD50 at 14 days ([4]; both sexes, mouse, in vivo, oral, read-out: median lethal dose (LD50)) was over 2000 mg/kg. The GHS classification ([4]; both, mouse, in vivo, 14 days) was “Category 5”, the “Neuronal cell type formation” value (HUMSCs) was “induced” and the IC50 (SARS-CoV-2 [5]) was 1 µM. The “effect on lung cancer stem cells” value (lung cancer stem cells) was “induces apoptosis and inhibits metastasis without harming the normal cells”, the lung histopathology ([6]; by day 7) was “normal lung pathology without any pneumonitis observed” and the “production of cytokines (TNF-α, IL6) and chemokines (CXCL10, CCL2, CCL3, CCL5)” value ([6]; in vivo) was “decreased”. For the same compound, the “effect on toxicity induced by anticancer agents in normal cells” value [7] was “reduces the toxic effect induced by anticancer agents”, the CC50 [8] was over 100 µM and the “time to decrease of overactivated cytokine-secreting immune cells” value (SARS-CoV-2 [9]) was 3 to 5 days. The “time to improved pulmonary function and symptoms” value (SARS-CoV-2 [9]) was 4 to 5 days, the Toxicity (Vero cells) was “no toxicity was observed” and the imaging studies (PANC-1 xenograft; 10 mg/kg) was “no detectable tumor”. For the same compound, the tumor volume (PANC-1 xenograft; day 5 to day 30, 25 mg/kg gemcitabine, 10 mg/kg Compound I) was “decrease”, the survival (PANC-1 xenograft; mouse, in vivo) was “improved survival” and the “number and activity of cytotoxic cells” value [10] was “increases”. For the same compound, the “protein expression of Class I HDAC” value ([11]; 24 h, western blotting, vs control p<0.05) was “decreased in a dose-dependent manner” and the “inhibition of HDAC1, HDAC2, HDAC3 and HDAC8” value ([11]; PANC cells) was “significantly inhibited”.
